Measurements published in patent US5250679A, “Nonpeptidyl platelet aggregation inhibitors having specificity for the GPIIb III receptor” (Genentech, Inc., priority 1992, dated 1993).
Counter-ions that a name gives are not always drawn. Like-named read-outs stand apart in the source and are kept apart here.

Key:
[1] = target: T1, GP IIb IIIa (Homo sapiens, UniProt P05106+P08514); test: Fibrinogen-GP IIb IIIa Receptor ELISA Binding Assay (Fg/IIbIIIa)
T1 construct: from tissue; host or cells: outdated human platelets
T1 sequence (P08514 32-887 limits assumed): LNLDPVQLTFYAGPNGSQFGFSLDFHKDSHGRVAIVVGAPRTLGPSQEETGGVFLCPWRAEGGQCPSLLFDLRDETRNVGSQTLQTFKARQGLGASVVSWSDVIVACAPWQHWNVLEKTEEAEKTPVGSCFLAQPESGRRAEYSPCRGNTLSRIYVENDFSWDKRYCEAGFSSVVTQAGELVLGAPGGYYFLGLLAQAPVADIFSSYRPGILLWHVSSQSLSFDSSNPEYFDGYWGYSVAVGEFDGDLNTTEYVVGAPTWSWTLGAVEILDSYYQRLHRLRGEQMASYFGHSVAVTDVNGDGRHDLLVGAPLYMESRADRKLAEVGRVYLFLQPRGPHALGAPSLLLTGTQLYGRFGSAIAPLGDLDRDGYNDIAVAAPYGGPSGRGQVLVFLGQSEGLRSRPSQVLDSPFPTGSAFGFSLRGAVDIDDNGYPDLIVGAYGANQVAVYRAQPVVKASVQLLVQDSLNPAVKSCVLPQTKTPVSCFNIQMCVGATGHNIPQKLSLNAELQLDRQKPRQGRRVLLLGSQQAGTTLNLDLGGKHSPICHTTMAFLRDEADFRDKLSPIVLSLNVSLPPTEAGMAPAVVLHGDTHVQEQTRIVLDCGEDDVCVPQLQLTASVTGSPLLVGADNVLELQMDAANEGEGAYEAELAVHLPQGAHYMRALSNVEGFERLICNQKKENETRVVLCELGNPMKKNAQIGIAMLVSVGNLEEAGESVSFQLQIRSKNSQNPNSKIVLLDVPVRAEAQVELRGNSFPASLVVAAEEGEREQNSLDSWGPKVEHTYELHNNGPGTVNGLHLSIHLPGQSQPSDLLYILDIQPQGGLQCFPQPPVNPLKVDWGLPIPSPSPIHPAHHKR
T1 sequence (P08514 891-1039 partner limits assumed): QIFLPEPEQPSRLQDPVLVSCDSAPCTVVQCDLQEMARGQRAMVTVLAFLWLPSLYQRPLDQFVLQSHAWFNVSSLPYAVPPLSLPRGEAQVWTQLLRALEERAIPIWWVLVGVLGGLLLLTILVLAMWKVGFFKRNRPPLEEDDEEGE
T1 sequence (P05106 27-788): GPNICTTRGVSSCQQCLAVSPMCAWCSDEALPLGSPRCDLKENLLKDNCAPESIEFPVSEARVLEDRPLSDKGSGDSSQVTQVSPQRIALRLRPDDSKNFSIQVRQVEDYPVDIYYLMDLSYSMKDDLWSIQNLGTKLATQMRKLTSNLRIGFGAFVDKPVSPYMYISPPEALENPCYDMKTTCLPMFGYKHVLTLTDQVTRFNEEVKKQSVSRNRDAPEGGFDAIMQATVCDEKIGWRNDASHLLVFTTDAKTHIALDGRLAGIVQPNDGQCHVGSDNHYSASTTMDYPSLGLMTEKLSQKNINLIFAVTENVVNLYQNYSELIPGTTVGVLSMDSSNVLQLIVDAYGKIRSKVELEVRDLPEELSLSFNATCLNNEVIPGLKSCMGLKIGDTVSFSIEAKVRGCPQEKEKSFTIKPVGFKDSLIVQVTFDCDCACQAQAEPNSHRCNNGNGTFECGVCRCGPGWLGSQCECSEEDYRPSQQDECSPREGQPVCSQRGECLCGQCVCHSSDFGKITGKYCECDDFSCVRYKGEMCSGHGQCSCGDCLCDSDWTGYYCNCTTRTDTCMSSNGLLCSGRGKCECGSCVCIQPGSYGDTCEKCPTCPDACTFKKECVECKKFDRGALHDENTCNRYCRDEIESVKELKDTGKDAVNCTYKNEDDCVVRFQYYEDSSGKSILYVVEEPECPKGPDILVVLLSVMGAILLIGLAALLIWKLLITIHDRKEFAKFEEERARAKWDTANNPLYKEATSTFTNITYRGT
Method: Briefly, microtiter plates are coated with fibrinogen (10 mg/ml) and then blocked with TACTS buffer containing 0.5% bovine serum albumin (BSA). […] After another wash a goat anti-mouse IgG conjugated to horseradish peroxidase is added. […] The reaction is stopped with 1N sulfuric acid and the absorbance at 492 nm is recorded. […] Outdated human platelets are washed 3 times with 10 mM tris-HCl, 150 mM NaCl (TBS), 1 mM EDTA, pH 7.5, and centrifuged at 2000×g to pellet cells. […] The supernatant fraction is collected and the supernatant is loaded onto a concanavalin-A column, previously equilibrated in TBS, 1 mM Ca2 Cl2, 0.1% Triton, 0.05% NaN3 and eluted with 0.2M a-methylmannoside. Fractions are pooled and loaded onto a heparin-agarose column. The flowthrough is collected and concentrated on an Amicon YM 30 filter to a volume of approximately 5-10 ml. The concentrate is then applied to an S-300 column (500 ml) and 6 ml fractions are collected. The GP IIb IIIa containing fractions are collected, pooled, and stored at -80° C. […] The precipitate is spun down in appropriate size bottles at 2000×g. The supernatant is decanted and the precipitate resuspended in 150 mM NaCl (approximately 50% of the original volume). […] The suspension is spun down and the precipitate is resuspended in Tris-saline in a minimal volume (approximately 5% of the original volume). Any remaining insoluble material is spun down at 2000 rpm in a Sorval type centrifuge and the fibrinogen supernatant is decanted and dialyzed overnight at 4° C. against Tris-saline. Characterization of the fibrinogen is by the Bradford protein assay, SDS-PAGE, and/or Western blotting using well known standard procedures. Briefly, 96 well plates are coated (Type Nunc 1 MaxisorpTM) with 10 mg/ml purified fibrinogen ([…]), and allowed to stand overnight at 4° C. […] The plates are again washed three times with PBS/Tween and then […] of sample in TNCNT is added. The mixture is incubated for 15 minutes at room temperature on a plate shaker. […] Fifty ml of this diluted GP IIb IIIa is then added to each well and incubated on a plate shaker at room temperature. After one hour, the plates are washed four times with PBS/Tween and 100 ml of a polyclonal or monoclonal antibody specific for GP IIIa such as AP3 (1 mg/ml) (See e.g. […] After a one hour incubation at room temperature on a plate shaker, the samples are washed 4 times with PBS/Tween. […] The color develops within about 3 to 20 minutes and the reaction is stopped with 100 ml 1M H2 SO4. The optical density at 492 nm vs 405 nm is recorded and IC50 values are determined.

[2] = system: human platelet rich plasma (PRP); test: In Vitro Human Platelet Aggregation Assay (PA); format: cell-based; settings: Homo sapiens, Platelet
Method: In addition to the GPIIb IIIa ELISA assay, platelet aggregation assays may be performed in human platelet rich plasma (PRP). […] The blood is centrifuged at 160×g for 10 min at 22° C. and then allowed to stand for 5 min after which the PRP is decanted. Platelet poor plasma (PPP) is isolated from the remaining blood after centrifugation at 2000×g for 25 min. The platelet count of the PRP is adjusted to ca. 300,000 per microliter with PPP.
A 225 mL aliquot of PRP plus 25 mL of either a dilution of the test sample or a control (PBS) is incubated for 5 min in a Chrono-log Whole Blood Aggregometer at 25° C. An aggregating agent (collagen, 1 mg/ml; U46619, 100 ng/ml; or ADP, 8 mM) is added and the platelet aggregation recorded.
Platelet aggregation assays are performed in human platelet rich plasma (PRP). […] The blood is centrifuged at 160×g for 10 minutes at 22° C. and allowed to stand for 5 minutes after which the PRP is decanted. Platelet poor plasma (PPP) is isolated from the remaining blood after centrifugation at 2000×g for 25 minutes. The platelet count of the PRP is diluted to about 300,000 platelets per microliter with PPP.
A 225 ml aliquot of PRP plus 25 ml of either a dilution of the test inhibitor sample or a control (PBS) is incubated for 5 minutes in a Chrono-log Whole Blood Aggregometer at 25° C. An aggregating agent (collagen, 1 mg/ml; U46619, 100 ng/ml; or ADP, 17 mM) is added and the transmission is recorded.

[3] = Example 29, Cmpd # 1-105, read-out: IC50 Fg/IIbI
[4] = Example 30, G # table, read-out: IC50 (μM) Fg/IIbIIIa
[5] = citrate, read-out: PA IC50 (μM) (citrate)
[6] = Examples 29 and 30, Cmpd # tables, read-out: IC50 (μM) Fg/IIbIIIa

Structure (SMILES) | IC50 [1, 3] [µM] | IC50 [1, 4] [µM] | IC50 [2, 5] [µM] | IC50 [1, 6] [µM] | IC50 ([2]; heparin, read-out: PA IC50 (μM) (heparin)) [µM]
N=C(N)NCCCCCc1ccc2c(c1)C(=O)N(CCC(=O)O)CC(=O)N2Cc1ccc2ccccc2c1 [Cmpd 75, 1-(2-napthyl)methyl-4-(2-carboxyethyl)-7-(5-guanidinopentyl)-3,4-dihydro-1H-1,4-benzodiazepine-2,5-dione trifluoroacetate] | 0.011 | 0.011 | 6.88 | – | –
NCCCCCCc1ccc2c(c1)C(=O)N(CCC(=O)O)CC(=O)N2Cc1cccc2ccccc12 [Cmpd 82, 1-(1-napthyl)methyl-4-(2-carboxyethyl)-7-(6-aminohexyl)-3,4-dihydro-1H-1,4-benzodiazepine-2,5-dione trifluoroacetate] | 0.015 | 0.015 | 0.76 | – | –
N=C(N)NCCCCCCc1ccc2c(c1)C(=O)N(CCC(=O)O)CC(=O)N2Cc1cccc2ccccc12 [Cmpd 85, 1-(1-napthyl)methyl-4-(2-carboxyethyl)-7-(6-guanidinohexyl)-3,4-dihydro-1H-1,4-benzodiazepine-2,5-dione trifluoroacetate] | 0.014 | 0.014 | 6.2 | – | –
N=C(N)NCCCCCCc1ccc2c(c1)C(=O)N(CCC(=O)O)CC(=O)N2Cc1cccc(NC(=O)CCCNC(=N)N)c1 [Cmpd 113] | – | 0.01 | 0.87 | 0.01 | –
NCCCCCCc1ccc2c(c1)C(=O)N(CCC(=O)O)CC(=O)N2Cc1cccc(NC(=O)CCCCN)c1 [Cmpd 114] | – | 0.008 | 0.31 | 0.008 | –
N=C(N)NCCCCCc1ccc2c(c1)C(=O)N(CCC(=O)O)CC(=O)N2Cc1cccc2ccccc12 [Cmpd 77, 1-(1-napthyl)methyl-4-(2-carboxyethyl)-7-(5-guanidinopentyl)-3,4-dihydro-1H-1,4-benzodiazepine-2,5-dione trifluoroacetate] | 0.008 | 0.008 | 2.65 | – | –
NCCCCCCc1ccc2c(c1)C(=O)N(CCC(=O)O)CC(=O)N2Cc1cccc(N)c1 [Cmpd 122] | – | 0.01 | 0.49 | 0.012 | –
N=C(N)Nc1ccc(C(=O)Nc2cccc(CN3C(=O)CN(CCC(=O)O)C(=O)c4cc(CCCCCCN)ccc43)c2)cc1 [Cmpd 127, 1-(3-(4-guanidinobenzoyl)aminophenyl)methyl-4-(2-carboxyethyl)-7-(6-aminohexyl)-3,4-dihydro-1H-1,4-benzodiazapine-2,5-dione] | – | 0.008 | 0.35 | 0.008 | –
CCCCC(=O)Nc1cccc(CN2C(=O)CN(CCC(=O)O)C(=O)c3cc(CCCCCCNC(=N)N)ccc32)c1 [Cmpd 124] | – | 0.012 | 2.76 | 0.012 | –
COc1ccc(CN2C(=O)CN(CCC(=O)O)C(=O)c3cc(CCCCCCNC(=N)N)ccc32)cc1 [Cmpd 84, 1-(p-methoxybenzyl)-4-(2-carboxyethyl)-7-(6-guanidinohexyl)-3,4-dihydro-1H-1,4-benzodiazepine-2,5-dione trifluoroacetate] | 0.024 | 0.024 | 10.4 | – | –
NCCCCCCc1ccc2c(c1)C(=O)N(CCC(=O)O)CC(=O)N2Cc1ccc2ccccc2c1 [Cmpd 83, 1-(2-napthyl)methyl-4-(2-carboxyethyl)-7-(6-aminohexyl)-3,4-dihydro-1H-1,4-benzodiazepine-2,5-dione trifluoroacetate] | 0.017 | 0.017 | 3.19 | – | –
N=C(N)NCCCCCCc1ccc2c(c1)C(=O)N(CCC(=O)O)CC(=O)N2Cc1cccc(NC(=O)CCCCCNC(=N)N)c1 [Cmpd 117] | – | 0.013 | 0.64 | 0.013 | –
NCCCCCCc1ccc2c(c1)C(=O)N(CCC(=O)O)CC(=O)N2Cc1cccc(NC(=O)CCCCCN)c1 [Cmpd 116] | – | 0.011 | 0.27 | 0.011 | –
CCCCC(=O)Nc1cccc(CN2C(=O)CN(CCC(=O)O)C(=O)c3cc(CCCCCCN)ccc32)c1 [Cmpd 123] | – | 0.015 | 0.64 | 0.015 | –
CC(CC(=O)O)N1CC(=O)N(C)c2ccc(C#CCCCNC(=N)N)cc2C1=O (stereo not drawn) [Cmpd 38, 1-methyl-4-(2-carboxy-1-methylethyl)-7-(5-guanidino-1-pentynyl)-3,4-dihydro-1H-1,4, benzodiazepine-2,5-dione trifluroacetate] | 0.018 | 0.018 | 1.19 | – | –
O=C(O)CCN1CC(=O)N(Cc2ccc(Cl)cc2)c2ccc(-c3ccc(N4CCNCC4)cc3)cc2C1=O [Cmpd 73, 1-(p-chlorobenzyl)-7-[4-(1-piperazine)phenyl]-4-(2-carboxyethyl)-3,4-dihydro-1H-1,4-benzodiazpine-2,4-dione trifluoroacetate] | 0.007 | 0.007 | 0.67 | – | 2.3
NCCCCCCc1ccc2c(c1)C(=O)N(CCC(=O)O)CC(=O)N2Cc1cccc(NC(=O)CCCN)c1 [Cmpd 112, 1-[3-(N-(4-aminobuturyl))aminophenyl]methyl-4-(2-carboxyethyl)-7-(6-aminohexyl)-3,4-dihydro-1H-1,4-benzodiazapine-2,5-dione bistrifluoroacetate] | – | 0.008 | 0.4 | 0.008 | –
NCCCCCc1ccc2c(c1)C(=O)N(CCC(=O)O)CC(=O)N2Cc1cccc2ccccc12 [Cmpd 78, 1-(1-napthyl)methyl-4-(2-carboxyethyl)-7-(5-aminopentyl)-3,4-dihydro-1H-1,4-benzodiazepine-2,5-dione trifluoroacetate] | 0.066 | 0.066 | 6.53 | – | –
CN1C(=O)CN(C(CC(=O)O)c2ccccc2)C(=O)c2cc(C#CCCCCN)ccc21 (stereo not drawn) [Cmpd 53] | 0.24 | – | – | – | –
CN1C(=O)CN(CCC(=O)O)C(=O)c2cc(CCc3ccc(CNC(=N)N)cc3)ccc21 [Cmpd 46] | 0.265 | – | – | – | –
CN1C(=O)C2CCC(CC(=O)O)N2C(=O)c2cc(CCCN)ccc21 (stereo not drawn) [Cmpd 17] | > 100 | – | – | – | –
NCCCCCc1ccc2c(c1)C(=O)N(CCC(=O)O)CC(=O)N2CCCCC(=O)O [Cmpd 132] | – | – | – | 0.931 | –
N=C(N)NCCCCCc1ccc2c(c1)C(=O)N(CCC(=O)O)CC(=O)N2Cc1ccc(C(F)(F)F)cc1 [Cmpd 93, 1-(p-trifluoromethylbenzyl)-4-(2-carboxyethyl)-7-(5-guanidinopentyl)-3,4-dihydro-1H-1,4-benzodiazepine-2,5-dione trifluoroacetate] | 0.014 | – | – | – | –
NCCCC#Cc1ccc2c(c1)C(=O)N(CCC(=O)O)CC(=O)N2Cc1ccc(Cl)cc1 [Cmpd 58] | 0.062 | – | – | – | –
NCCCC#Cc1cccc(C(=O)NCCC(=O)O)c1 [Cmpd 161] | – | – | – | 9 | –
NCCCCC#Cc1ccc2c(c1)C(=O)N(CCC(=O)O)CC(=O)N2Cc1ccc([N+](=O)[O-])cc1 [Cmpd 87] | 0.031 | – | – | – | –
CN1C(=O)CN(CCC(=O)O)C(=O)c2cc3cc(CCCCN)ccc3cc21 [Cmpd 139] | – | – | – | 0.153 | –
CN1C(=O)CN(CCC(=O)O)C(=O)c2cc3c(cc21)CCC(CCCCN)C3 (stereo not drawn) [Cmpd 143] | – | – | – | 0.048 | –
CC1C(=O)N(C)c2ccc(C#CCCNC(=N)N)cc2C(=O)N1CCC(=O)O (stereo not drawn) [Cmpd 26] | 80 | – | – | – | –
